Data published in patent US12441726B2, “Compounds and uses thereof” (Foghorn Therapeutics Inc., priority 2020, dated 2025).
Where two headings read alike, the source gives them in different places.

How the values were obtained:
BRG-1 = BRG-1 (Homo sapiens, UniProt P51532); assay: ATPase catalytic activity assay (ADP-Glo), BRG-1; settings: for Emax: 1 h, read-out: BRG1 Max % Inhibition, ADP-Glo, 30 nM BRG-1, 400 μM ATP
BRM = BRM (Homo sapiens, UniProt P51531); assay: ATPase catalytic activity assay (ADP-Glo), BRM; settings: 30 nM BRM, 400 μM ATP; for IC50: BRM ATPase: IC50 (uM)
BRM, sequence (P51531 whole entry): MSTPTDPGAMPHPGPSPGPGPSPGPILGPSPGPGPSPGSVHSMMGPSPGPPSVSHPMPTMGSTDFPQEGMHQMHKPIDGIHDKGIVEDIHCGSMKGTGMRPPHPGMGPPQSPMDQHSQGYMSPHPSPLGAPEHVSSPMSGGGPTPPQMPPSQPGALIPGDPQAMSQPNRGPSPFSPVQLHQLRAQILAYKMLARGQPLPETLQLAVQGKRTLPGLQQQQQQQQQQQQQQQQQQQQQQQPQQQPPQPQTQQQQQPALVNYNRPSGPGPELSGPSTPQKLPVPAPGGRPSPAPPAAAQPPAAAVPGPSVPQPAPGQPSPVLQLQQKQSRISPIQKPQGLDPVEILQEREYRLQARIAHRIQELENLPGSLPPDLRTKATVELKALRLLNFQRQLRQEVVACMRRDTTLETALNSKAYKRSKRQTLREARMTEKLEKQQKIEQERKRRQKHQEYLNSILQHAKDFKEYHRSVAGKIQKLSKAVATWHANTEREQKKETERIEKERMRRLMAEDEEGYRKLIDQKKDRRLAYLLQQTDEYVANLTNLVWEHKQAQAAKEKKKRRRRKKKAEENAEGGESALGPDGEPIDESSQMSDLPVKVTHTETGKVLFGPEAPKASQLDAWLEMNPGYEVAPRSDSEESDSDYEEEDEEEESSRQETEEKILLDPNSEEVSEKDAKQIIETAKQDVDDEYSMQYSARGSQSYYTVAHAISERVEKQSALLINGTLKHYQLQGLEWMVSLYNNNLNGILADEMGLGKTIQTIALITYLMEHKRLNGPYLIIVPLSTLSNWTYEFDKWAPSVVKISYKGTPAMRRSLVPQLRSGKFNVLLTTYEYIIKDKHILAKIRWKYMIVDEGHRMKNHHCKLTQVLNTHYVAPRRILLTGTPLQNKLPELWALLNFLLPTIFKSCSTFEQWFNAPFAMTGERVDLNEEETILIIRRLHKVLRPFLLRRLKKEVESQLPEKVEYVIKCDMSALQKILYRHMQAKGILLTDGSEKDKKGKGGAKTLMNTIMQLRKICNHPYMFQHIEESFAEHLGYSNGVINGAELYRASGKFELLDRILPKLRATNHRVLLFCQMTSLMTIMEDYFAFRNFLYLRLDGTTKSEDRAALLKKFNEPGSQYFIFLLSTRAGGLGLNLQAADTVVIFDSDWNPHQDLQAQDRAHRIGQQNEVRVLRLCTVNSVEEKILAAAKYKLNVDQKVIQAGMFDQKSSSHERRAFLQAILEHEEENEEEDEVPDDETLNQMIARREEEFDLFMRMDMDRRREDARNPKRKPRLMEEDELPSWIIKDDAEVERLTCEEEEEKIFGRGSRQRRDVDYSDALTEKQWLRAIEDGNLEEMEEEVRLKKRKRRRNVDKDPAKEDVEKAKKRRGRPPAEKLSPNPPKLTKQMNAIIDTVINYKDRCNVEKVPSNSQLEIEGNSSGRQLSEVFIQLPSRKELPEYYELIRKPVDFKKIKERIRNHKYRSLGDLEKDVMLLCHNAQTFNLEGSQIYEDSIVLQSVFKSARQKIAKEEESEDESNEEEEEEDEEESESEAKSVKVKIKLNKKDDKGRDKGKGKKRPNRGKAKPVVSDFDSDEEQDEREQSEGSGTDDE

BRG-1, sequence (P51532 whole entry): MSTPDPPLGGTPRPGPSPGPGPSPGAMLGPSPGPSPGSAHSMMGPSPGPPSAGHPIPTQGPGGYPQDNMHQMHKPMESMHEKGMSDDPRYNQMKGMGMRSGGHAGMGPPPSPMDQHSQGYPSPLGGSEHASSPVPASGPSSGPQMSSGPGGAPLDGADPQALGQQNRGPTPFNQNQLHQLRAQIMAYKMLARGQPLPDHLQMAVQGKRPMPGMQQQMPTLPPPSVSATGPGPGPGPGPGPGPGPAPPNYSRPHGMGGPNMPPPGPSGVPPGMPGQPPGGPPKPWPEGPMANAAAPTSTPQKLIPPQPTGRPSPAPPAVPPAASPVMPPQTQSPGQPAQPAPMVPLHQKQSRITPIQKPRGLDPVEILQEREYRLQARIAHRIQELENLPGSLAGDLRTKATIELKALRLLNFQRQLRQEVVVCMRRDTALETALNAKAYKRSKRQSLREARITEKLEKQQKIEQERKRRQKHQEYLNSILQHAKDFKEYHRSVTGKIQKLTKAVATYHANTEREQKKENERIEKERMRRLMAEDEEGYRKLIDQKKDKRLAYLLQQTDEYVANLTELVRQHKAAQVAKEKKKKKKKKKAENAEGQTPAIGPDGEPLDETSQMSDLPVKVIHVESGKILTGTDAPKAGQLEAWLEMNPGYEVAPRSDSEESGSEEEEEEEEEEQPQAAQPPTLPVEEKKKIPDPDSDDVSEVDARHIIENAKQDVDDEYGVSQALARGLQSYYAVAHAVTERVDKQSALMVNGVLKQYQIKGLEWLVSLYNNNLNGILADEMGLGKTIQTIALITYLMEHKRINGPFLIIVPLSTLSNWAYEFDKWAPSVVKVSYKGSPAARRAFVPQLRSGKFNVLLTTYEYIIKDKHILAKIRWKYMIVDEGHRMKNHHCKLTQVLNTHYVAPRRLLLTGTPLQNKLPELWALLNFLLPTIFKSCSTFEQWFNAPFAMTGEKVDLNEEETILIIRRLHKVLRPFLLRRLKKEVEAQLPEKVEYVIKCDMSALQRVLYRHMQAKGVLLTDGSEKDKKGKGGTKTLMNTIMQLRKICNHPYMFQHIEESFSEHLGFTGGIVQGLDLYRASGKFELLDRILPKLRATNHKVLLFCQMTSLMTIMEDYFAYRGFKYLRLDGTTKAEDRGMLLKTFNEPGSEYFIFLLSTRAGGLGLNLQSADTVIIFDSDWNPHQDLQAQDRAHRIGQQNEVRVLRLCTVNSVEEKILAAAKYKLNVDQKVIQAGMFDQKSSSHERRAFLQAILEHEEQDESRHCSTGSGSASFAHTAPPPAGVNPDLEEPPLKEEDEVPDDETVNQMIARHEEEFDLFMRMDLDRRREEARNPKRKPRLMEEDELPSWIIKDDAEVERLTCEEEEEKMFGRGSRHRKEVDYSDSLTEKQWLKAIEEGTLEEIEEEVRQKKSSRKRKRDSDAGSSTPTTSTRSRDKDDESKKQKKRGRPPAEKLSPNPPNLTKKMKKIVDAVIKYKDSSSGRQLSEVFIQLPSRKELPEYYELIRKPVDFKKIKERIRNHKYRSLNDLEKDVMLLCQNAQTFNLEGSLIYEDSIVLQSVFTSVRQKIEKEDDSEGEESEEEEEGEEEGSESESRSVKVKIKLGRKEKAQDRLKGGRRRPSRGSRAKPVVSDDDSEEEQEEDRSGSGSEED

SMILES	IC50 (BRG-1) [nM]	Emax (BRG-1) [%]	BRM Max % Inhibition (BRM) [%]	IC50 (BRM) [µM]	BRG1 Max % Inhibition (BRG-1; ADP-Glo, 30 nM BRG-1, 400 μM ATP) [%]	IC50 (BRG-1; read-out: BRG1 ATPase: IC50, ADP-Glo, 30 nM BRG-1, 400 μM ATP) [nM]
O=C(NCc1cc(C#Cc2ccccc2)ccn1)c1ccc2c(c1)[C@@](F)(C(F)F)COC2 [Compound 47]	> 1000	47	90	0.1 to 0.5	–	–
O=C(NCc1cc(C#Cc2ccccc2)ccn1)c1ccc2c(c1)[C@](F)(C(F)F)COC2 [Compound 48]	> 1000	11	67	> 1	–	–
C[C@@]1(C#N)COCc2ccc(C(=O)NCc3cc(N4CCc5ccccc5CC4)ccn3)cc21 [Compound 50]	> 1000	53	90	0.1 to 0.5	–	–
COc1cc(F)cc2c1CCN(c1ccnc(CNC(=O)c3ccc4c(c3)[C@](C)(C#N)COC4)c1)C2 [Compound 51]	100 to 500	94	99	< 0.1	–	–
C[C@@]1(C#N)COCc2ccc(C(=O)NCc3cc(SCc4ccccc4)ccn3)cc21 [Compound 52]	> 1000	34	86	0.1 to 0.5	–	–
C[C@@]1(C#N)COCc2ccc(C(=O)NCc3cc(N4Cc5ccncc5C4)ccn3)cc21 [Compound 53]	> 1000	48	88	0.1 to 0.5	–	–
C[C@@]1(C#N)COCc2ccc(C(=O)NCc3cc(N4CCC(O)(c5ccccc5)C4)ccn3)cc21 (stereo partly shown) [Compound 54]	> 1000	42	81	0.1 to 0.5	–	–
C[C@@]1(C#N)COCc2ccc(C(=O)NCc3cc(N4CCC[C@H](c5ccccc5)C4)ccn3)cc21 [Compound 55]	> 1000	33	82	0.1 to 0.5	–	–
COc1cccc2c1CCN(c1ccnc(CNC(=O)c3ccc4c(c3)[C@](C)(C#N)COC4)c1)C2 [Compound 56]	100 to 500	92	98	< 0.1	–	–
C[C@@]1(C#N)COCc2ccc(C(=O)NCc3cc(N4CCC5CCCCC5C4)ccn3)cc21 (stereo partly shown) [Compound 57]	> 1000	37	85	0.1 to 0.5	–	–
COC1(c2ccccc2)CCN(c2ccnc(CNC(=O)c3ccc4c(c3)[C@](C)(C#N)COC4)c2)C1 (stereo partly shown) [Compound 58]	500 to 1000	50	92	0.1 to 0.5	–	–
C[C@@]1(C#N)COCc2ccc(C(=O)NCc3cc(N4CC(n5ccc6ccccc65)C4)ccn3)cc21 [Compound 59]	500 to 1000	56	93	0.1 to 0.5	–	–
C[C@@]1(C#N)COCc2ccc(C(=O)NCc3cc(N4CCC(F)(c5ccccc5)C4)ccn3)cc21 (stereo partly shown) [Compound 60]	500 to 1000	75	93	0.1 to 0.5	–	–
C[C@@]1(C#N)COCc2ccc(C(=O)NCc3cc(OCC4CCOCC4)ccn3)cc21 [Compound 61]	> 1000	25	85	0.1 to 0.5	–	–
C[C@@]1(C#N)COCc2ccc(C(=O)NCc3cc(C4CCN(c5ccccc5)C4)ccn3)cc21 (stereo partly shown) [Compound 62]	> 1000	42	90	0.1 to 0.5	–	–
C[C@@]1(C#N)COCc2ccc(C(=O)NCc3cc(N4CCc5ccc(C(F)F)cc5C4)ccn3)cc21 [Compound 63]	500 to 1000	84	99	< 0.1	–	–
C[C@@]1(C#N)COCc2ccc(C(=O)NCc3cc(OCc4ccc(C#N)cc4)ccn3)cc21 [Compound 64]	> 1000	36	87	0.1 to 0.5	–	–
C[C@@]1(C#N)COCc2ccc(C(=O)NCc3cc(OCc4cccc(C#N)c4)ccn3)cc21 [Compound 65]	> 1000	39	90	0.1 to 0.5	–	–

Further lines, results first:

IC50 (BRG-1) [nM]	Emax (BRG-1) [%]	BRM Max % Inhibition (BRM) [%]	IC50 (BRM) [µM]	BRG1 Max % Inhibition (BRG-1; ADP-Glo, 30 nM BRG-1, 400 μM ATP) [%]	IC50 (BRG-1; read-out: BRG1 ATPase: IC50, ADP-Glo, 30 nM BRG-1, 400 μM ATP) [nM]	SMILES
500 to 1000	76	99	0.1 to 0.5	–	–	C[C@@]1(C#N)COCc2ccc(C(=O)NCc3nccc(N4CCc5ccccc5C4)c3F)cc21 [Compound 66]
500 to 1000	84	97	0.1 to 0.5	–	–	C[C@@]1(C#N)COCc2ccc(C(=O)NCc3cc(N4CCc5cc(C(F)F)ccc5C4)ccn3)cc21 [Compound 67]
100 to 500	91	98	< 0.1	–	–	C[C@@]1(C#N)COCc2ccc(C(=O)NCc3nccc(N4Cc5ccccc5C4)c3F)cc21 [Compound 68]
500 to 1000	50	90	0.1 to 0.5	–	–	C[C@@]1(C#N)COCc2ccc(C(=O)NCc3cc(C4CCN(c5cccc(C(F)F)n5)C4)ccn3)cc21 (stereo partly shown) [Compound 69]
500 to 1000	55	94	0.1 to 0.5	–	–	COc1ccc([C@H]2C[C@@H](c3ccnc(CNC(=O)c4ccc5c(c4)[C@](C)(C#N)COC5)c3)C2)cc1 [Compound 70]
> 1000	42	89	0.1 to 0.5	–	–	COc1cccc([C@H]2C[C@@H](c3ccnc(CNC(=O)c4ccc5c(c4)[C@](C)(C#N)COC5)c3)C2)c1 [Compound 71]
100 to 500	91	94	< 0.1	–	–	COc1ccc([C@H]2C[C@H](c3ccnc(CNC(=O)c4ccc5c(c4)[C@](C)(C#N)COC5)c3)C2)cc1 [Compound 72]
> 1000	44	84	0.1 to 0.5	–	–	Cn1ccc2c(c1=O)CCN(c1ccnc(CNC(=O)c3ccc4c(c3)[C@](C)(C#N)COC4)c1)C2 [Compound 73]
100 to 500	87	98	< 0.1	–	–	COc1cccc([C@H]2C[C@H](c3ccnc(CNC(=O)c4ccc5c(c4)[C@](C)(C#N)COC5)c3)C2)c1 [Compound 74]
500 to 1000	54	97	0.1 to 0.5	–	–	C[C@@]1(C#N)COCc2ccc(C(=O)NCc3cc(N4CCc5ccccc5C4)cnn3)cc21 [Compound 75]
> 1000	91	98	0.1 to 0.5	–	–	CN(C)c1cccc([C@H]2C[C@H](c3ccnc(CNC(=O)c4ccc5c(c4)[C@](C)(C#N)COC5)c3)C2)n1 [Compound 76]
500 to 1000	102	99	0.1 to 0.5	–	–	C[C@@]1(C#N)COCc2ccc(C(=O)NCc3cc([C@H]4C[C@H](c5cccc(C6CC6)n5)C4)ccn3)cc21 [Compound 77]
500 to 1000	79	96	< 0.1	–	–	C[C@@]1(C#N)COCc2ccc(C(=O)NCc3cc([C@H]4C[C@@H](c5cccc(C6CC6)n5)C4)ccn3)cc21 [Compound 78]
500 to 1000	74	96	0.1 to 0.5	–	–	C[C@@]1(C#N)COCc2ccc(C(=O)NCc3cc([C@H]4C[C@H](c5cccc(N6CCOCC6)n5)C4)ccn3)cc21 [Compound 79]
> 1000	29	83	0.1 to 0.5	–	–	C[C@@]1(C#N)COCc2ccc(C(=O)NCc3cc([C@H]4C[C@@H](c5cccc(N6CCOCC6)n5)C4)ccn3)cc21 [Compound 80]
100 to 500	90	98	< 0.1	–	–	C[C@@H]1CN(c2cccc([C@H]3C[C@H](c4ccnc(CNC(=O)c5ccc6c(c5)[C@](C)(C#N)COC6)c4)C3)n2)C[C@H](C)O1 [Compound 81]
> 1000	38	88	0.1 to 0.5	–	–	C[C@@H]1CN(c2cccc([C@H]3C[C@@H](c4ccnc(CNC(=O)c5ccc6c(c5)[C@](C)(C#N)COC6)c4)C3)n2)C[C@H](C)O1 [Compound 82]
< 100	99	101	< 0.1	–	–	COCCNC(=O)c1cccc(C#Cc2ccnc(CNC(=O)c3ccc4c(c3)[C@](C)(C#N)COC4)c2)c1 [Compound 83]
500 to 1000	53	89	0.1 to 0.5	–	–	CN(C)C(=O)c1cccc(C#Cc2ccnc(CNC(=O)c3ccc4c(c3)[C@](C)(C#N)COC4)c2)c1 [Compound 84]
–	–	98	< 0.1	77	> 1000	C[C@@]1(C#N)COCc2ccc(C(=O)NCc3cc4nc(-c5ccccc5)ccc4cn3)cc21 [Compound 85]
> 1000	62	96	0.1 to 0.5	–	–	C[C@@]1(F)COCc2ccc(C(=O)NCc3cc4nc(-c5ccccc5)ccc4cn3)cc21 [Compound 86]
> 1000	87	88	0.5 to 1	–	–	C[C@H](NC(=O)c1ccc2c(c1)[C@](C)(C#N)COC2)c1cc2nc(-c3ccccc3)ccc2cn1 [Compound 87]
> 1000	73	96	0.1 to 0.5	–	–	C[C@@H](NC(=O)c1ccc2c(c1)[C@](C)(C#N)COC2)c1cc2nc(-c3ccccc3)ccc2cn1 [Compound 88]
> 1000	15	76	> 1	–	–	C[C@@]1(O)COCc2ccc(C(=O)NCc3cc4nc(-c5ccccc5)ccc4cn3)cc21 [Compound 89]
> 1000	24	82	> 1	–	–	C[C@@]1(CO)CCc2ccc(C(=O)NCc3cc4nc(-c5ccccc5)ccc4cn3)cc21 [Compound 90]
